According to patent US5202320A, “Method for treating leishmaniasis” (priority 1989, dated 1993):
pIC50: −log10 of the molar value.

Key:
[1] = tested on: Leishmania mexicana amazonensis; test: In vitro screening for anti-leishmanial activity: inhibition of 3H-thymidine incorporation by promastigotes; assay type: cell-based; settings: for pIC50: PREVIOUS, Table III only
Procedure: Leishmania mexicana amazonensis, strain MHOM/BR/73/M2269 (WR669), promastigotes were grown to early log phase in Schneider's Drosophila Medium (GIBCO) supplemented with 20% heat-inactivated fetal bovine serum GIBCO) and 100 ug/ml gentamicin sulfate [Parasitology 76:309 (1978)]. The assay medium was Schneider's plus 10% fetal bovine serum. Serial dilutions of the compounds of use in the present invention were suspended in the assay medium an prepared in duplicate rows of a 96-well microtiter plate. Parasite suspension (200 ul) at 2.5×10^6 cells/ml was added to each well and each plate was sealed and incubated under air at 25° C. After 24 hours, [methyl-3H] thymidine (20 Ci/mmol) was added to yield 1-2 uCi/well. After an additional 18 hours, the cells were harvested with a Skatron cell harvester onto glass microfiber filters. The filter disks were washed and dried and counted using a Beckman LS3801 scintillation counter. The data on uptake of ^3 H-thymidine was fitted to a logistic-logarithmic concentration response function by a non-linear regression method and the drug concentrations required to inhibit 50% incorporation of ^3 H-thymidine were determined [Antimicrob. Agents Chemother. 16:710 (1979); Exper. Parasitol. 66:86 (1988)].

leishmaniasis = settings: Reviews of Infectious Diseases 10(3):576-577; Experimental Parasitology 52:409 (1981); cited from earlier work
[2] = tested on: Preumocystis carinii pneumonia; settings: especially immunocompromised patients suffering from AIDS; cited from earlier work
trypanosomiasis = settings: in vivo; cited from earlier work

Structure (SMILES) | anti-Leishmania activity (in words) [1] | pIC50 ([1]; Leishmania mexicana) | also measured
CN1CCN=C1c1ccc(OCCCCCOc2ccc(C3=NCCN3C)cc2)cc1 [Example 16] | – | – | pIC50 [1]: < 5.35
N=C(N)c1ccc(OCCCCCOc2ccc(C(=N)N)cc2)cc1 [Example 4, pentamidine] | moderately effective against Leishmania | – | utility for treating leishmaniasis (in words) (leishmaniasis): limited utility for the purpose of treating leishmaniasis; usefulness in treatment of Preumocystis carinii pneumonia (in words) [2]: extremely useful in the treatment of Preumocystis carinii pneumonia; usefulness for treatment of trypanosomiasis (in words) (trypanosomiasis): useful for the treatment of trypanosomiasis
COc1cc(C2=NCCN2)ccc1OCCCOc1ccc(C2=NCCN2)cc1OC [Example 17] | – | < 5.35 | –
N=C(N)c1ccc(OCCCCCCOc2ccc(C(=N)N)cc2)cc1 [Example 9, hexamidine] | high-degree of anti-Leishmania activity | – | –
c1cc(C2=NCCN2)ccc1OCCCCCOc1ccc(C2=NCCN2)cc1 [Example 15] | – | 6.17 | –
N=C(N)c1ccc(NCCCCCNc2ccc(C(=N)N)cc2)cc1 [Example 8] | high-degree of anti-Leishmania activity | – | –
